Patent US4436752A, “Treatment of gastric and gastro-duodenal disorders with derivatives of phenyl aliphatic carboxylic acids” (Roussel Uclaf, priority 1981, dated 1984)

Key:
[1] = Determination of acute toxicity (LD50, oral route); conditions: mouse, in vivo, mice
Description: (2) Determination of acute toxicity
The lethal dose LD50 of the derivatives of Examples 1 and 2 was evaluated after administration by oral route to mice.

[2] = tested on: ulcers in rats at the level of the stomach; experiment: Determination of the anti-ulcer activity (SHAY's technique, ulcers induced by ligature of the pylorus); assay type: in vivo; conditions: rat, per os, about 16 hours after treatment
Source text: (1) Determination of the anti-ulcer activity
The technique used is described by SHAY et al. in Gastroenterology, 5, 43 (1945).
SHAY's technique consists of inducing ulcers in rats at the level of the stomach by ligature of the pylorus.
The animals are anesthetized with ether. A longitudinal incision is made about 1 cm below the sternum, the glandular portion of the stomach and the duodenum are uncovered and a ligature is placed a few millimeters below the pylorus. The muscular plane is left as is and the skin is sutured by two clips.
The animals then immediately receive the dispersive or the substance to be studied per os in a volume of 0.5 ml/100 g, and are kept without food or drink until sacrificed by carotid section, effected about 16 hours after the treatment.
Before removing the stomach, a ligature is placed above the cardia.
The gastric fluid is collected in order to measure its pH.
The stomach is then opened along the greater curvature, rinsed in physiological serum and spread on graph paper in order to be examined under a binocular lens.
The severity of the lesions, graded from 0 to 4 for each stomach, is then evaluated macroscopically.
The average intensity of the ulcerations is determined for each lot of rats and the protection is calculated as the ratio of the mean index for the treated group to the mean index for the control group.
The pH of the gastric fluid is also determined for the treated animals and the control animals.

| SMILES | LD50 [1] | Ulceration % protection, with respect to the controls ([2]; 100 mg/kg) | pH of the gastric fluid, treated animals ([2]; 100 mg/kg, control animals 2.7) | Ulceration % protection, with respect to the controls ([2]; 0.8 mg/kg) | pH of the gastric fluid, treated animals ([2]; 0.8 mg/kg, control animals 3.5) | Ulceration % protection, with respect to the controls ([2]; 4 mg/kg) | pH of the gastric fluid, treated animals ([2]; 4 mg/kg, control animals 3.2) | Ulceration % protection, with respect to the controls ([2]; 20 mg/kg) | pH of the gastric fluid, treated animals ([2]; 20 mg/kg, control animals 3.2) |
| --- | --- | --- | --- | --- | --- | --- | --- | --- | --- |
| COc1ccc(C(=O)CC(O)C(=O)O)c(OC)c1OC (stereo not shown) [Example 1, 4-(2,3,4-trimethoxyphenyl)-4-oxo-2-hydroxy butanoic acid] | > 1000 mg/kg | 41% | 3.3 | – | – | – | – | – | – |
| COc1ccc(C(=O)/C=C/C(=O)O)c(OC)c1OC [Example 2, (E) 4-(2,3,4-trimethoxyphenyl)-4-oxo-2-butenoic acid] | ~300 mg/kg | – | – | 17% | 3.1 | 76% | 3.7 | 99% | 5.8 |
